Twelve compounds from patent publication US6090945A, “Tetrahydro-beta-carbolines” (Eli Lilly and Company, priority 1998, dated 2000) can be followed below.

As usually defined, the IC50 is the concentration that gives 50% inhibition. What is called Ki is a measure of affinity in units of concentration, obtained from inhibition or displacement.

Structures can show the parent of a compound that is named as a salt. Where two headings read alike, the source gives them in different places.

Assay [1] concerns the target 5-HT2 receptor (Rattus norvegicus, UniProt P14842). Briefly: 5-HT2 radioligand binding assay ([3H]ketanserin displacement). Also on record: species or system rat (Sprague-Dawley cerebral cortex).
Assay [2] concerns the target T1, 5-HT1c receptor (Bos taurus, UniProt A0AAA9SBU1).
T1 sequence (A0AAA9SBU1 33-457): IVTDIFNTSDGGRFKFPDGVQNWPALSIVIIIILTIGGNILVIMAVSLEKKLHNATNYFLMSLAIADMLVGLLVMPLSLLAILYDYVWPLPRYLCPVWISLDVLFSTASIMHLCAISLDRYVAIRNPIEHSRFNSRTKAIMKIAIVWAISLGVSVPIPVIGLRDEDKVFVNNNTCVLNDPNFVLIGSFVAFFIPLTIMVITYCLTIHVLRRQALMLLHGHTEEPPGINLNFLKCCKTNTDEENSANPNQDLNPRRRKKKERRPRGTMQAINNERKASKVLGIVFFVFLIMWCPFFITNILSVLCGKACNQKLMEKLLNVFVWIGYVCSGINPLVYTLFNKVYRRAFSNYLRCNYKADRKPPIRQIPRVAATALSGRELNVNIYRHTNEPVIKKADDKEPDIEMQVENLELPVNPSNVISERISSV
Briefly: 5-HT1c radioligand binding assay ([3H]mesulergine displacement). Conditions: read-out: 5HT1C IC50 (binding displacement); choroid plexus; tritiated mesulergine 2.0 nM; 37° C., 15 minutes.
Procedure: I. Assay for 5-HT1c Affinity
(§1) Beef brain was removed immediately after slaughter, and choroid plexus were dissected over ice. […] Tissues were homogenized in 9 volumes of 0.32 mol/L sucrose and centrifuged at 1,000×g for 10 minutes. The supernatant was centrifuged at 17,000×g for 20 minutes. The pellet was suspended in 100 volumes of 50 mM Tris-HCl (pH7.4), incubated at 37° C. for 10 minutes and centrifuged at 50,000×g for 10 minutes, and the process was repeated three times. The final pellets were frozen at -70° C. and used within 2 weeks. Pellets were rehydrated with physiological buffer prior to use.
(§2) The reactions were terminated by rapid filtration, (Brandel Cell Harvestor), through Whatman GF/B glass filters that had been presoaked in Tris buffer pH 7.4. The filters were then washed 2 times with 5 ml of ice cold Tris buffer pH 7.4. Washed filters were placed in scintillation vials and 10 ml RedySolv, (Brandel), was added and samples were counted in a Searle D-300 beta counter. Means and standard error statistics were calculated for triplicate experimental determinations in certain cases. Mean values were obtained from three or more separate determinations. The incubation time for the reaction mixture was 15 minutes at 37° C.

Assay [3] relates to 5-HT1c receptor. The assay is described as above. The settings on record: versus 5-HT2, as shown by Table II.
Procedure: I. Assay for 5-HT1c Affinity
as §1, §2
For assay [4], the target named is T2, cloned rat 5-HT2B receptor (Rattus norvegicus, UniProt P30994).
T2 construct: expressed in transfected cells
The assay can be described thus: 5-HT2B radioligand binding ([3H]5-HT), cloned rat receptor. The settings on record: [3H]5-HT 2 nM, read-out: Rat 2B binding (IC50 converted to Ki).
Procedure: (§3) RAdioligand Binding Studies for 5-HT2 B:
Membrane preparation from transformed cells. Suspension cells expressing the cloned rat 5-HT2B receptor were harvested by centrifugation at 200×g for 15 min at 4° C. […] Membranes for the binding assays were prepared by vortexing the pellet in 50 mM Tris-HCl, pH 7.4 (0.5×10^9 cells/30 ml). The tissue suspension was then centrifuged at 39,800×g for 10 min at 4° C. This procedure was repeated for a total of three washes, with a 10 minute incubation at 37° C. between the first and second wash.
[^3 H]5-HT binding studies. Binding assays were automated using a Biomek 1000 (Beckman Instruments, Fullerton, Calif.) and were performed in triplicate in 0.8 ml total volume. Membrane suspension, 200 μl, (0.04-0.27 mg protein) and 200 μl of drug dilution in water were added to 400 μl of 67 mM Tris-HCl, pH 7.4, containing [^3 H]5-HT, pargyline, CaCl2, and L-ascorbic acid. Final concentrations of pargyline, CaCl2 and L-ascorbic acid were 10 μM, 3 mM and 0.1%, respectively. […] The amount of [^3 H]5-HT trapped on the filters was determined by liquid scintillation spectrometry (Ready Protein and Beckman LS 6000IC, Beckman Instruments, Fullerton, Calif.). For the saturation experiments, actual free radioligand concentrations were determined by sampling the supernatant of parallel saturation experiments in which bound radioactivity had been separated by centrifugation. […] Protein was determined by the method of Bradford, using bovine serum albumin as the standard.
(§4) The Kd and Bmax values from the saturation assays were determined for best fit to a one-site or a two-site binding model using a partial F-test. […] The IC50 values from the competition assays, the binding parameters for the IP3 standard curve and the EC50 and Emax values from the IP3 assays were determined by nonlinear regression analysis of four parameter logistic equations (Systat, Systat Inc, Evanston, Ill.). […]

Assay [5] addresses Human 2A (Homo sapiens, UniProt P28223). Briefly: radioligand binding, human 2A. The settings on record: read-out: Human 2A binding (IC50 converted to Ki). The protocol:
The Kd and Bmax values from the saturation assays were determined for best fit to a one-site or a two-site binding model using a partial F-test. De Lean, A., A. A. Hancock, and R. J. Lefkowitz, Mol. Pharmacol. 21: 5-16 (1981). The following equation was used for a one-site binding model, [formula] where Bound=amount of [^3 H]5-HT specifically bound, Bmax =maximum number of binding sites, Kd =equilibrium dissociation constant and [L]=free concentration of [^3 H]5-HT, or a two-site binding model, [formula] where Bound=amount of [^3 H]5-HT specifically bound, Bmax1 =maximum number of high affinity binding sites, Bmax2 =maximum number of low affinity binding sites, Kd1 =equilibrium dissociation constant for the high affinity site, Kd2 =equilibrium dissociation constant for the low affinity site and [L]=free concentration of [^3 H]5-HT. The IC50 values from the competition assays, the binding parameters for the IP3 standard curve and the EC50 and Emax values from the IP3 assays were determined by nonlinear regression analysis of four parameter logistic equations (Systat, Systat Inc, Evanston, Ill.). De Lean, A., A. A. Hancock, and R. J. Lefkowitz, Mol. Pharmacol., 21: 5-16 (1981). The IC50 values were converted to Ki values using the Cheng-Prusoff equation. Cheng, Y., and W. H. Prusoff, Biochem. Pharmacol., 22: 3099-3108 (1973).

Assay [6] addresses Human 2B (Homo sapiens, UniProt P41595). Briefly: radioligand binding, human 2B. Conditions: read-out: Human 2B binding (IC50 converted to Ki).
Procedure: as §3
[^3 H]5-HT binding studies. Binding assays were automated using a Biomek 1000 (Beckman Instruments, Fullerton, Calif.) and were performed in triplicate in 0.8 ml total volume. Membrane suspension, 200 μl, (0.04-0.27 mg protein) and 200 μl of drug dilution in water were added to 400 μl of 67 mM Tris-HCl, pH 7.4, containing [^3 H]5-HT, pargyline, CaCl2, and L-ascorbic acid. Final concentrations of pargyline, CaCl2 and L-ascorbic acid were 10 μM, 3 mM and 0.1%, respectively. Tubes were incubated at 37° C. for 15 min or at 0° C. for 2 hours (binding equilibria were verified for both of these conditions), then rapidly filtered using a Brandel cell harvester (Model MB-48R; Brandel, Gaithersburg, Md.) through Whatman GF/B filters which had been presoaked in 0.5% polyethylenimine and precooled with ice-cold 50 mM Tris-HCl, pH 7.4. The filters were then washed rapidly four times with one ml ice-cold 50 mM Tris-HCl, pH 7.4. The amount of [^3 H]5-HT trapped on the filters was determined by liquid scintillation spectrometry (Ready Protein and Beckman LS 6000IC, Beckman Instruments, Fullerton, Calif.). For the saturation experiments, actual free radioligand concentrations were determined by sampling the supernatant of parallel saturation experiments in which bound radioactivity had been separated by centrifugation. […] 5-HT, 10 μM, or 1-naphthylpiperazine (1-NP), 10 μM, defined nonspecific binding. […] Protein was determined by the method of Bradford, using bovine serum albumin as the standard.
as §4
[7] abbreviates: rat cerebral cortex, tritiated ketanserin 1 nM, 37° C., read-out: 5HT2 IC50 (binding displacement).

Human 2A, sequence (P28223 whole entry): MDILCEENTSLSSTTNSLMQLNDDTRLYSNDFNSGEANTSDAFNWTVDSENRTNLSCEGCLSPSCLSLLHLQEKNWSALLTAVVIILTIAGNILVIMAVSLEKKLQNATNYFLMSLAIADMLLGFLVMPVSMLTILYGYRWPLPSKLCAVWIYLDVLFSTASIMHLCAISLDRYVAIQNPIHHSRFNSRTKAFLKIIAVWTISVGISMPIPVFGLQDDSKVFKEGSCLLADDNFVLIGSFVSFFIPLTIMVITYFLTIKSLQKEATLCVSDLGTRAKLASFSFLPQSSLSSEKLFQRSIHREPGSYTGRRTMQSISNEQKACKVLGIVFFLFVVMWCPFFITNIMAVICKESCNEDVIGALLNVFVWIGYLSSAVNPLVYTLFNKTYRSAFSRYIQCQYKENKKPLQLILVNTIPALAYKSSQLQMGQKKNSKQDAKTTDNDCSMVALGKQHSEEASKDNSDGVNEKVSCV
T2 sequence (P30994 whole entry): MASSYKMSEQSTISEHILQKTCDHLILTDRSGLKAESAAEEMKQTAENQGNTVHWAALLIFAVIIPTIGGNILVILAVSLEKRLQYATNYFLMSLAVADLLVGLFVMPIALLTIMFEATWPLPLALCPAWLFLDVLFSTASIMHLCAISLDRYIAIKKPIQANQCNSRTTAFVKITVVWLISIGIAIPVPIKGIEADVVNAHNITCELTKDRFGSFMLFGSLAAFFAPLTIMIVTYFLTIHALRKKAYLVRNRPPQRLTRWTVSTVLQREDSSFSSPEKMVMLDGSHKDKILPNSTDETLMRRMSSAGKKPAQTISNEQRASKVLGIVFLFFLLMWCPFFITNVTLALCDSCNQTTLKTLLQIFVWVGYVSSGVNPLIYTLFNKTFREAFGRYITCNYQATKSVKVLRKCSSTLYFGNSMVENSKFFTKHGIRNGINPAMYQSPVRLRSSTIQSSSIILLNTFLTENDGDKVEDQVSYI
5-HT2 receptor, sequence (P14842 whole entry): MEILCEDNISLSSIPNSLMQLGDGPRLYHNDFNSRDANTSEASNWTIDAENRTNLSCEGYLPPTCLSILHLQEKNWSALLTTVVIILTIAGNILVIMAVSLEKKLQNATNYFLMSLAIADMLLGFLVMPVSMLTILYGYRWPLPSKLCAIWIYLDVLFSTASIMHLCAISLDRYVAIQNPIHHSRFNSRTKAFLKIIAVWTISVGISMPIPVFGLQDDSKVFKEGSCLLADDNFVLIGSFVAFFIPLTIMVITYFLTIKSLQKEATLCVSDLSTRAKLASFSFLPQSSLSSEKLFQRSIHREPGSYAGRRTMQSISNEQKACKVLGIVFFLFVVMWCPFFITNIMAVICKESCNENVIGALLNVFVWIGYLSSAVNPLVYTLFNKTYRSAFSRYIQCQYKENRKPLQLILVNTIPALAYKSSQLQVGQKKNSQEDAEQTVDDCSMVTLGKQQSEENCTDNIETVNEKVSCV
Human 2B, sequence (P41595 whole entry): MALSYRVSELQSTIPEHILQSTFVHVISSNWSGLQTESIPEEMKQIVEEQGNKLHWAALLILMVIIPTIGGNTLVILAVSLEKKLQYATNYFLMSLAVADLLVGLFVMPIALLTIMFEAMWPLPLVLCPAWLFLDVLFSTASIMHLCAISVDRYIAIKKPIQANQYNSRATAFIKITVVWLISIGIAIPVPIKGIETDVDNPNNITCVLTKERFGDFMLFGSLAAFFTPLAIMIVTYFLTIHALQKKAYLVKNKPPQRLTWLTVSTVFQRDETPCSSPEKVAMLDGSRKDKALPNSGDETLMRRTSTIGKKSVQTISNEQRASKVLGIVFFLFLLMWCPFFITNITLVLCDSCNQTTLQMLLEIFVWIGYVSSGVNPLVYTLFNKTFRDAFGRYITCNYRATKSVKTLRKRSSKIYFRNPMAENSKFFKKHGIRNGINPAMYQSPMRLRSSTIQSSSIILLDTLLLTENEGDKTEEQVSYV

With `COc1ccc(CC2NCCc3c2[nH]c2c(Br)cc(Br)cc32)cc1OC` (centres unmarked) [Example 3, 6,8-dibromo-1-[(3,4-dimethoxyphenyl)methyl]-1,2,3,4-tetrahydro-9H-pyrido[3,4-b]indole], the IC50 in assay [1] (setting [7]) is 900 nM; in assay [2], 29 nM. Also, the “5-HT1c selectivity (low IC50 in 5-HT1c assay, higher IC50 in 5-HT2 assay)” value (“5-HT1c selectivity” below) in assay [3] is recorded as “particularly 5-HT1c selective”.

Take `COc1ccc(CC2NCCc3c2[nH]c2c(Br)c(C)ccc32)cc1OC.Cl` (centres unmarked) [Example 7, 7-methyl-8-bromo-1-[(3,4-dimethoxyphenyl)-methyl]-1,2,3,4-tetrahydro-9H-pyrido[3,4-b]indole hydrochloride]: the IC50 was > 100 nM in assay [1] and 5.1 nM in assay [2]. The “5-HT1c selectivity” value in assay [3] was “particularly 5-HT1c selective”.

For the compound `COc1ccc(CC2NCCc3c2[nH]c2c(Br)cc(C)cc32)cc1OC.Cl` (centres unmarked) [Example 4, 6-methyl-8-bromo-1-[(3,4-dimethoxyphenyl)-methyl]-1,2,3,4-tetrahydro-9H-pyrido[3,4-b]indole hydrochloride], the IC50 in assay [1] was found to be 132 nM; in assay [2], 20 nM. In assay [3], the “5-HT1c selectivity” value is listed as “particularly 5-HT1c selective”.

`COc1ccc([C@@H](C)[C@@H]2NCCc3c2[nH]c2cc(C)c(C)cc32)cc1OC` (relative stereo) [Example 41, (±) 6,7-dimethyl-1-[(3,4-dimethoxyphenyl)-1-ethyl]-1,2,3,4-tetrahydro-9H-pyrido[3,4-b]indole (Z)-2-butenedioate]: the Ki in assay [4] amounted to 6.42 nM; in assay [5] it was 23.1 nM; in assay [6] it was 2.01 nM. Moreover, the figures for the IC50 in assay [1] (setting [7]) and in assay [2] were 173 nM and 127 nM, respectively.

In the case of `CC[C@H](c1ccc(OC)c(OC)c1)[C@@H]1NCCc2c1[nH]c1ccc(C)cc21` (relative stereo) [Example 43, (±) 6-methyl-1-[(3,4-dimethoxyphenyl)-1-propyl]-1,2,3,4-tetrahydro-9H-pyrido[3,4-b]indole (Z)-2-butenedioate], the values for the Ki in assay [5] and in assay [6] were 17.5 nM and 0.87 nM, respectively. For the same compound, the half-inhibitory concentration (IC50) came out at 178 nM in assay [1] (setting [7]) and 139 nM in assay [2].

As for `COc1ccc([C@@H](C)[C@@H]2NCCc3c2[nH]c2ccc(C)cc32)cc1OC` (relative stereo) [Example 40], the Ki in assay [4] came out at 5.61 nM; in assay [5], 44.5 nM; in assay [6], 1.4 nM. For the same compound, the IC50 stood at 293 nM in assay [1] (setting [7]) and 171 nM in assay [2].

Regarding `COc1ccc(CC2NCCc3c2[nH]c2cc(C)cc(C)c32)cc1OC` (centres unmarked) [Example 15, 5,7-dimethyl-1,2,3,4-tetrahydro-1-[(3,4-dimethoxyphenyl)methyl]-9H-pyrido[3,4b]indole hydrochloride], the IC50 in assay [1] (setting [7]) was > 100 nM; in assay [2], 14 nM. Besides, the “5-HT1c selectivity” value in assay [3] is given as “particularly 5-HT1c selective”.

Take `COc1ccc(CC2NCCc3c2[nH]c2ccc(C)cc32)c(OC)c1OC` (centres unmarked) [Example 22, 6-methyl-1-[(2,3,4-trimethoxyphenyl)-methyl]-1,2,3,4-tetrahydro-9H-pyrido[3,4-b]indole hydrochloride]: the Ki in assay [4] worked out at 5.39 nM. The values for the half-inhibitory concentration (IC50) in assay [1] and in assay [2] were 1420 nM and 30 nM, respectively.

Turning to `COc1ccc(CC2NCCc3c2[nH]c2cc(C)c(C)cc32)cc1OC` (centres unmarked) [Example 16, 6,7-dimethyl-1,2,3,4-tetrahydro-1-[(3,4-dimethoxyphenyl)methyl]-9H-pyrido[3,4b]indole], the half-maximal inhibitory concentration (IC50) in assay [1] (setting [7]) is 2110 nM; in assay [2], 63 nM. Also, the “5-HT1c selectivity” value in assay [3] is “particularly 5-HT1c selective”.

`COc1ccc(CC2NCCc3c2[nH]c2c(F)cc(F)cc32)cc1OC` (centres unmarked) [Example 6, 6,8-difluoro-1-[(3,4-dimethoxyphenyl)-methyl]-1,2,3,4-tetrahydro-9H-pyrido[3,4-b]indole]: the IC50 in assay [1] (setting [7]) is 168 nM; in assay [2], 43 nM. In assay [3], the “5-HT1c selectivity” value is “particularly 5-HT1c selective”.

As for `COc1ccc(CC2NCCc3c2[nH]c2ccc(C(C)C)cc32)cc1OC` (centres unmarked) [Example 13, 6-(1-methylethyl)-1,2,3,4-tetrahydro-1-[(3,4-dimethoxyphenyl)methyl]-9H-pyrido[3,4b]indole], the 50% inhibitory concentration (IC50) in assay [1] (setting [7]) worked out at 433 nM; in assay [2], 48 nM. Further, in assay [3], the “5-HT1c selectivity” value is listed as “particularly 5-HT1c selective”.

As for `COc1ccc(CC2NCCc3c2[nH]c2c3ccc3ccccc32)cc1OC` (centres unmarked) [Example 10, 7,8,9,10-tetrahydro-10-[(3,4-dimethoxyphenyl)methyl]-11H-benzo [g]pyrido[3,4-b]indole], the values for the IC50 in assay [1] (setting [7]) and in assay [2] were 219 nM and 43 nM, respectively. The “5-HT1c selectivity” value in assay [3] was “particularly 5-HT1c selective”.
